From ChEMBL document CHEMBL1926642, “Relevance of the C-5 position to schweinfurthin induced cytotoxicity” (2011)

Experiments:
Type in all cases: functional
CAKI-1 = experiment: Growth inhibition of human Caki1 cells after 48 hrs by sulforhodamine B assay; conditions: CAKI-1, 48 h
NCI-H226 = experiment: Growth inhibition of human NCI-H226 cells after 48 hrs by sulforhodamine B assay; conditions: NCI-H226, 48 h
COLO 205 = experiment: Growth inhibition of human COLO205 cells after 48 hrs by sulforhodamine B assay; conditions: COLO 205, 48 h
NCI-H322M = experiment: Growth inhibition of human NCI-H322M cells after 48 hrs by sulforhodamine B assay
OVCAR-3 = experiment: Growth inhibition of human OVCAR3 cells after 48 hrs by sulforhodamine B assay; conditions: OVCAR-3, 48 h
HCT-15 = experiment: Growth inhibition of human HCT15 cells after 48 hrs by sulforhodamine B assay; conditions: HCT-15, 48 h
NCI/ADR-RES = experiment: Growth inhibition of human NCI/ADR-RES cells after 48 hrs by sulforhodamine B assay
M14 = experiment: Growth inhibition of human M14 cells after 48 hrs by sulforhodamine B assay; conditions: M14, 48 h
SK-MEL-5 = experiment: Growth inhibition of human SK-MEL-5 cells after 48 hrs by sulforhodamine B assay; conditions: SK-MEL-5, 48 h
MDA-MB-468 = experiment: Growth inhibition of human MDA-MB-468 cells after 48 hrs by sulforhodamine B assay; conditions: MDA-MB-468, 48 h
BT-549 = experiment: Growth inhibition of human BT549 cells after 48 hrs by sulforhodamine B assay; conditions: BT-549, 48 h
T47D = experiment: Growth inhibition of human T47D cells after 48 hrs by sulforhodamine B assay
KM12 = experiment: Growth inhibition of human KM12 cells after 48 hrs by sulforhodamine B assay; conditions: KM12, 48 h
HCC 2998 = experiment: Growth inhibition of human HCC2998 cells after 48 hrs by sulforhodamine B assay; conditions: HCC 2998, 48 h
TK-10 = experiment: Growth inhibition of human TK10 cells after 48 hrs by sulforhodamine B assay; conditions: TK-10, 48 h
OVCAR-4 = experiment: Growth inhibition of human OVCAR4 cells after 48 hrs by sulforhodamine B assay; conditions: OVCAR-4, 48 h
HOP-62 = experiment: Growth inhibition of human HOP62 cells after 48 hrs by sulforhodamine B assay; conditions: HOP-62, 48 h
ACHN = experiment: Growth inhibition of human ACHN cells after 48 hrs by sulforhodamine B assay
A498 = experiment: Growth inhibition of human A498 cells after 48 hrs by sulforhodamine B assay; conditions: A498, 48 h
LOX IMVI = experiment: Growth inhibition of human LOXIMVI cells after 48 hrs by sulforhodamine B assay
MOLT-4 = experiment: Growth inhibition of human MOLT4 cells after 48 hrs by sulforhodamine B assay; conditions: MOLT-4, 48 h
UACC-62 = experiment: Growth inhibition of human UACC62 cells after 48 hrs by sulforhodamine B assay; conditions: UACC-62, 48 h
HT-29 = experiment: Growth inhibition of human HT-29 cells after 48 hrs by sulforhodamine B assay; conditions: HT-29, 48 h
MDA-MB-231 = experiment: Growth inhibition of human MDA-MB-231/ATCC cells after 48 hrs by sulforhodamine B assay; conditions: MDA-MB-231, 48 h
SN12C = experiment: Growth inhibition of human SN12C cells after 48 hrs by sulforhodamine B assay
RXF 393 = experiment: Growth inhibition of human RXF393 cells after 48 hrs by sulforhodamine B assay; conditions: RXF 393, 48 h
NCI-H522 = experiment: Growth inhibition of human NCI-H522 cells after 48 hrs by sulforhodamine B assay; conditions: NCI-H522, 48 h
U-251 = experiment: Growth inhibition of human U251 cells after 48 hrs by sulforhodamine B assay; conditions: U-251, 48 h
SK-MEL-2 = experiment: Growth inhibition of human SK-MEL-2 cells after 48 hrs by sulforhodamine B assay; conditions: SK-MEL-2, 48 h
SW-620 = experiment: Growth inhibition of human SW620 cells after 48 hrs by sulforhodamine B assay; conditions: SW-620, 48 h
IGROV-1 = experiment: Growth inhibition of human IGROV1 cells after 48 hrs by sulforhodamine B assay; conditions: IGROV-1, 48 h
786-0 = experiment: Growth inhibition of human 786-0 cells after 48 hrs by sulforhodamine B assay; conditions: 786-0, 48 h
[1] = read-out: pLC50 (the source's name) (converted)

Question: Which results are given for COCOc1cc(/C=C/c2cc(CO)c3c(c2)C[C@@H]2C(C)(C)[C@H](O)CC[C@@]2(C)O3)cc(OC)c1C/C=C(\C)CCC=C(C)C?
Answer: GI50 (CAKI-1): 0.813 µM; LC50 (CAKI-1): > 100 µM; TGI (CAKI-1; read-out: pTGI (converted)): 15.1 µM; GI50 (NCI-H226): 14.5 µM; LC50 (NCI-H226): 64.6 µM; TGI (NCI-H226; read-out: pTGI (converted)): 30.2 µM; GI50 (COLO 205): 3.55 µM; LC50 (COLO 205): 66.1 µM; TGI (COLO 205; read-out: pTGI (converted)): 14.1 µM; GI50 (NCI-H322M): 22.4 µM; LC50 (NCI-H322M): > 100 µM; TGI (NCI-H322M; read-out: pTGI (converted)): 91.2 µM; GI50 (OVCAR-3): 12.6 µM; LC50 (OVCAR-3): 60.3 µM; TGI (OVCAR-3; read-out: pTGI (converted)): 27.5 µM; GI50 (HCT-15): 1.35 µM; LC50 (HCT-15): 81.3 µM; TGI (HCT-15; read-out: pTGI (converted)): 10.2 µM; GI50 (NCI/ADR-RES): 8.13 µM; LC50 (NCI/ADR-RES): 95.5 µM; TGI (NCI/ADR-RES; read-out: pTGI (converted)): 29.5 µM; GI50 (M14): 0.692 µM; LC50 (M14): > 100 µM; TGI (M14; read-out: pTGI (converted)): 21.9 µM; GI50 (SK-MEL-5): 2.24 µM; LC50 (SK-MEL-5): 40.7 µM; TGI (SK-MEL-5; read-out: pTGI (converted)): 12.3 µM; GI50 (MDA-MB-468): 1.78 µM; LC50 (MDA-MB-468): 49 µM; TGI (MDA-MB-468; read-out: pTGI (converted)): 12.3 µM; GI50 (BT-549): 1.38 µM; LC50 (BT-549): 50.1 µM; TGI (BT-549; read-out: pTGI (converted)): 17.8 µM; GI50 (T47D): 11.5 µM; LC50 (T47D): > 100 µM; TGI (T47D; read-out: pTGI (converted)): 49 µM; GI50 (KM12): 4.27 µM; LC50 (KM12): 57.5 µM; TGI (KM12; read-out: pTGI (converted)): 21.4 µM; GI50 (HCC 2998): 10.7 µM; LC50 (HCC 2998): 70.8 µM; TGI (HCC 2998; read-out: pTGI (converted)): 27.5 µM; GI50 (TK-10): 15.8 µM; LC50 (TK-10): > 100 µM; TGI (TK-10; read-out: pTGI (converted)): 41.7 µM; GI50 (OVCAR-4): 7.24 µM; LC50 (OVCAR-4): > 100 µM; TGI (OVCAR-4; read-out: pTGI (converted)): 44.7 µM; GI50 (HOP-62): 0.537 µM; LC50 (HOP-62): 64.6 µM; TGI (HOP-62; read-out: pTGI (converted)): 11 µM; GI50 (ACHN): 2.24 µM; LC50 (ACHN): > 100 µM; TGI (ACHN; read-out: pTGI (converted)): 50.1 µM; GI50 (A498): 0.933 µM; LC50 (A498): 50.1 µM; TGI (A498; read-out: pTGI (converted)): 19.5 µM; GI50 (LOX IMVI): 0.55 µM; LC50 (LOX IMVI): 18.2 µM; TGI (LOX IMVI; read-out: pTGI (converted)): 3.02 µM; GI50 (MOLT-4): 0.398 µM; LC50 (MOLT-4): > 100 µM; TGI (MOLT-4; read-out: pTGI (converted)): > 100 µM; GI50 (UACC-62): 0.55 µM; LC50 (50% lethal concentration) (UACC-62): 57.5 µM; TGI (UACC-62; read-out: pTGI (converted)): 10.7 µM; GI50 (HT-29): 2.04 µM; LC50 (concentration killing 50% of cells) (HT-29): > 100 µM; TGI (HT-29; read-out: pTGI (converted)): 19.1 µM; GI50 (MDA-MB-231): 1.62 µM; CC50 (MDA-MB-231; [1]): 57.5 µM; TGI (MDA-MB-231; read-out: pTGI (converted)): 14.5 µM; GI50 (SN12C): 6.61 µM; LC50 (SN12C): 58.9 µM; TGI (SN12C; read-out: pTGI (converted)): 22.4 µM; GI50 (RXF 393): 0.0661 µM; LC50 (50% lethal concentration) (RXF 393): 2.69 µM; TGI (RXF 393; read-out: pTGI (converted)): 0.355 µM; GI50 (NCI-H522): 10.5 µM; LC50 (NCI-H522): 77.6 µM; TGI (NCI-H522; read-out: pTGI (converted)): 28.2 µM; GI50 (U-251): 0.275 µM; LC50 (U-251): 53.7 µM; TGI (U-251; read-out: pTGI (converted)): 15.5 µM; GI50 (SK-MEL-2): 17.8 µM; LC50 (SK-MEL-2): > 100 µM; TGI (SK-MEL-2; read-out: pTGI (converted)): 66.1 µM; GI50 (SW-620): 1.95 µM; LC50 (SW-620): 67.6 µM; TGI (SW-620; read-out: pTGI (converted)): 13.5 µM; GI50 (IGROV-1): 15.8 µM; LC50 (IGROV-1): > 100 µM; TGI (IGROV-1; read-out: pTGI (converted)): > 100 µM; GI50 (786-0): 0.158 µM; CC50 (786-0; [1]): 8.32 µM; TGI (786-0; read-out: pTGI (converted)): 0.912 µM
